Test results published in patent US6630505B2, “Aminopyrrolidine sulfonamides as serine protease inhibitors” (Ortho-McNeil Pharmaceutical, Inc., priority 2001, dated 2003).

The compounds below were run against T1, human Factor Xa (Homo sapiens, UniProt P00742) (assay: Factor Xa inhibition, enzyme-catalyzed hydrolysis assay (chromogenic substrate)). Settings: 5.7 nM Factor Xa, 30-700 μM substrate, pH 8.4, 37° C.
T1 construct: commercial human Factor Xa (American Diagnostica); purchased American Diagnostica
Type: biochemical
Method: Enzyme-catalyzed hydrolysis rates were measured spectrophotometrically using commercial human Factor Xa (American Diagnostica), the chromogenic substrate (Meo—CO—D—CHG—Gly—Arg—pNa (American Diagnostica); in aqueous buffer (50 mM Trisma Base, 0.1% Tween 80, pH 8.4), and a microplate reader (Molecular Devices). Changes in absorbance at 405 nm were monitored using the software program Softmax (Molecular Devices), upon addition of enzyme, with and without inhibitor present at 37° C. for 30 minutes. The IC50 values were determined by fixing the enzyme and substrate concentrations (5.7 nM Factor Xa, 500 μM Factor Xa substrate) and varying the inhibitor concentration. Percent inhibition was calculated by comparing the initial reaction slopes of the without inhibitor samples to those with inhibitor. Inhibition constants (Ki) were determined by fixing the enzyme concentrations (5.7 nM Factor Xa) and inhibitor concentration and varying the substrate concentrations (30-700 μM Factor Xa substrate. Michaelis-Menton kinetics were applied to the initial reaction slopes using the program Kcat (Bio Metallics Inc.).

T1 sequence (P00742 235-488 limits assumed): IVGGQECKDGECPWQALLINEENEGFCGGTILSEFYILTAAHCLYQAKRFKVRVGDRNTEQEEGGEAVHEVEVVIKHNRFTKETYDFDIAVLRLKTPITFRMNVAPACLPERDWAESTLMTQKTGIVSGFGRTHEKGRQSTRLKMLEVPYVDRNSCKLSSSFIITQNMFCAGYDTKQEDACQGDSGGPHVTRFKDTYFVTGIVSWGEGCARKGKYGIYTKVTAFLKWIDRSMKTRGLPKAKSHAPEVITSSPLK
T1 sequence (P00742 41-179 partner limits assumed): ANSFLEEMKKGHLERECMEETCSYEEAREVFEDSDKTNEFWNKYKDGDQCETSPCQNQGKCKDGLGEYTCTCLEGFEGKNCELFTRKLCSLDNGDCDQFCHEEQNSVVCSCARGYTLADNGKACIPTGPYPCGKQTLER

Ki [nM] | Compound
200 | COC(=O)CNC(=O)c1ccc(CN(C(=O)c2ccc(N=C(N)N)cc2)C2CCN(S(=O)(=O)/C=C/c3ccc(Cl)cc3)C2)cc1 (stereo not shown) [Compound 10, [[4-[[[1-[[(E)-2-(4-chlorophenyl)ethenyl]sulfonyl]-3-pyrrolidinyl][4-[(diaminomethylene)amino]benzoyl]amino]methyl]benzoyl]amino]-acetic acid methyl ester]
7100 | COC(=O)c1ccc(CN(C2CCN(C(=O)c3ccc(N=C(N)N)cc3)C2)S(=O)(=O)/C=C/c2ccc(Cl)cc2)cc1 (stereo not shown) [Compound 22, 4-[[[[(E)-2-(4-chlorophenyl)ethenyl]sulfonyl][1-[4-[(diaminomethylene)amino]benzoyl]-3-pyrrolidinyl]amino]methyl]-benzoic acid methyl ester]
200 | COC(=O)CNC(=O)c1cccc(CN(C(=O)c2ccc(N=C(N)N)cc2)C2CCN(S(=O)(=O)/C=C/c3ccc(Cl)cc3)C2)c1 (stereo not shown) [Compound 13, [[3-[[[1-[[(E)-2-(4-chlorophenyl)ethenyl]sulfonyl]-3-pyrrolidinyl][4-[(diaminomethylene)amino]benzoyl]amino]methyl]benzoyl]amino]-acetic acid methyl ester]
300 | NC(N)=Nc1ccc(C(=O)N(Cc2cccc(C(=O)NCC(=O)O)c2)C2CCN(S(=O)(=O)/C=C/c3ccc(Cl)cc3)C2)cc1 (stereo not shown) [Compound 14, [[3-[[[1-[[(E)-2-(4-chlorophenyl)ethenyl]sulfonyl]-3-pyrrolidinyl][4-[(diaminomethylene)amino]benzoyl]amino]methyl]benzoyl]amino]-acetic acid]
300 | NC(N)=Nc1ccc(C(=O)N(Cc2ccc(O)cc2)C2CCN(S(=O)(=O)/C=C/c3ccc(Cl)cc3)C2)cc1 (stereo not shown) [Compound 2, N-[1-[[(E)-2-(4-chlorophenyl)ethenyl]sulfonyl]-3-pyrrolidinyl]-4-[(diaminomethylene)amino]-N-[(4-hydroxyphenyl)methyl]-benzamide]
200 | NC(N)=Nc1ccc(C(=O)N(Cc2ccc(C(=O)O)cc2)C2CCN(S(=O)(=O)/C=C/c3ccc(Cl)cc3)C2)cc1 (stereo not shown) [Compound 5, 4-[[[1-[[(E)-2-(4-chlorophenyl)ethenyl]sulfonyl]-3-pyrrolidinyl][4-[(diaminomethylene)amino]benzoyl]amino]methyl]-benzoic acid]
400 | COC(=O)c1ccc(CN(C(=O)c2ccc(N=C(N)N)cc2)C2CCN(S(=O)(=O)/C=C/c3ccc(Cl)cc3)C2)cc1 (stereo not shown) [Compound 3, 4-[[[1-[[(E)-2-(4-chlorophenyl)ethenyl]sulfonyl]-3-pyrrolidinyl][4-[(diaminomethylene)amino]benzoyl]amino]methyl]-benzoic acid methyl ester]
600 | NC(N)=Nc1ccc(C(=O)N(Cc2cccc(OCC(=O)O)c2)C2CCN(S(=O)(=O)/C=C/c3ccc(Cl)cc3)C2)cc1 (stereo not shown) [Compound 11, [3-[[[1-[[(E)-2-(4-chlorophenyl)ethenyl]sulfonyl]-3-pyrrolidinyl][4-[(diaminomethylene)amino]benzoyl]amino]methyl]phenoxy]-acetic acid]
1600 | NC(N)=Nc1ccc(C(=O)N(Cc2ccccc2)C2CCN(S(=O)(=O)/C=C/c3ccc(Cl)cc3)C2)cc1 (stereo not shown) [Compound 1, N-[1-[[(E)-2-(4-chlorophenyl)ethenyl]sulfonyl]-3-pyrrolidinyl]-4-[(diaminomethylene)amino]-N-(phenylmethyl)-benzamide]
600 | NC(N)=Nc1ccc(C(=O)N(Cc2cccc(C(=O)O)c2)C2CCN(S(=O)(=O)/C=C/c3ccc(Cl)cc3)C2)cc1 (stereo not shown) [Compound 6, 3-[[[1-[[(E)-2-(4-chlorophenyl)ethenyl]sulfonyl]-3-pyrrolidinyl][4-[(diaminomethylene)amino]benzoyl]amino]methyl]-benzoic acid]
600 | NC(=O)c1cccc(CN(C(=O)c2ccc(N=C(N)N)cc2)C2CCN(S(=O)(=O)/C=C/c3ccc(Cl)cc3)C2)c1 (stereo not shown) [Compound 15, 3-[[[1-[[(E)-2-(4-chlorophenyl)ethenyl]sulfonyl]-3-pyrrolidinyl][4-[(diaminomethylene)amino]benzoyl]amino]methyl]-benzamide]
400 | NC(N)=Nc1ccc(C(=O)N(Cc2ccc(C(=O)NCC(=O)O)cc2)C2CCN(S(=O)(=O)/C=C/c3ccc(Cl)cc3)C2)cc1 (stereo not shown) [Compound 12, [[4-[[[1-[[(E)-2-(4-chlorophenyl)ethenyl]sulfonyl]-3-pyrrolidinyl][4-[(diaminomethylene)amino]benzoyl]amino]methyl]benzoyl]-amino]-acetic acid]
300 | NC(=O)c1ccc(CN(C(=O)c2ccc(N=C(N)N)cc2)C2CCN(S(=O)(=O)/C=C/c3ccc(Cl)cc3)C2)cc1 (stereo not shown) [Compound 9, N-[[4-(aminocarbonyl)phenyl]methyl]-N-[1-[[(E)-2-(4-chlorophenyl)ethenyl]sulfonyl]-3-pyrrolidinyl]-4-[(diaminomethylene)amino]-benzamide]
21000 | COc1ccc2ccc(S(=O)(=O)N(Cc3ccccc3)C3CCN(C(=O)c4ccc(N=C(N)N)cc4)C3)cc2c1 (stereo not shown) [Compound 23, N-[1-[4-[(diaminomethylene)amino]benzoyl]-3-pyrrolidinyl]-7-methoxy-N-(phenylmethyl)-2-naphthalenesulfonamide]
4400 | NC(N)=Nc1ccc(C(=O)N2CCC(N(Cc3ccc(OCc4ccccc4)cc3)S(=O)(=O)/C=C/c3ccc(Cl)cc3)C2)cc1 (stereo not shown) [Compound 17, 2-(4-chlorophenyl)-N-[1-[4-[(diaminomethylene)amino]benzoyl]-3-pyrrolidinyl]-N-[[4-(phenylmethoxy)phenyl]methyl]-(E)-ethenesulfonamide]
7700 | COC(=O)c1cccc(CN(C(=O)c2ccc(N=C(N)N)cc2)C2CCN(S(=O)(=O)/C=C/c3ccc(Cl)cc3)C2)c1 (stereo not shown) [Compound 4, 3-[[[1-[[(E)-2-(4-chlorophenyl)ethenyl]sulfonyl]-3-pyrrolidinyl][4-[(diaminomethylene)amino]benzoyl]amino]methyl]-benzoic acid methyl ester]
1100 | COC(=O)COc1cccc(CN(C(=O)c2ccc(N=C(N)N)cc2)C2CCN(S(=O)(=O)/C=C/c3ccc(Cl)cc3)C2)c1 (stereo not shown) [Compound 8, [3-[[[1-[[(E)-2-(4-chlorophenyl)ethenyl]sulfonyl]-3-pyrrolidinyl][4-[(diaminomethylene)amino]benzoyl]amino]methyl]phenoxy]-acetic acid methyl ester]
100 | 4-[(aminoiminomethyl)amino]-N-(2-benzofuranylmethyl)-N-[1-[[(E)-2-(4-chlorophenyl)ethenyl]sulfonyl]-3-pyrrolidinyl]-benzamide [Compound 27]

These compounds were tested against T2, human Lung Tryptase (assay: Tryptase inhibition, chromogenic peptide substrate hydrolysis assay). Settings: 1.0 nM tryptase, 500 μM N-p-Tosyl-GLY-PRO-LYS-pNA, 37° C.
T2 construct: 1.0 nM human Lung Tryptase
Type: biochemical
Method: The rate of increase in absorbance at 405 nm due to hydrolysis of synthetic chromogenic peptide substrates ([S]: 500 μM N-p-Tosyl-GLY-PRO-LYS-pNA; Sigma T-6140) is measured in the presence and absence of inhibitors (I) with a microplate reader at 37° C. The enzyme reaction is started by the addition of enzyme ([E]: 1.0 nM human Lung Tryptase; Cortex Biochem CP3033). Data is collected over a period of 30 min. and the initial rate of substrate hydrolysis (Vo (mOD/min)) is calculated. Inhibition is calculated by comparing to wells […] (vehicle) and IC50s are determined using a four parameters fit logistics model.

IC50 [nM] | Compound
4000 | N-[[4-[(aminoiminomethyl)amino]phenyl]methyl]-N-[1-[[(E)-2-(4-chlorophenyl)ethenyl]sulfonyl]-3-pyrrolidinyl]-4-[(diaminomethylene)amino]-benzamide [Compound 24]
600 | NC(N)=Nc1ccc(C(=O)NC2CCN(S(=O)(=O)/C=C/c3ccc(Cl)cc3)C2)cc1 (stereo not shown) [Compound 26, N-[1-[[(E)-2-(4-chlorophenyl)ethenyl]sulfonyl]-3-pyrrolidinyl]-4-[(diaminomethylene)amino]-benzamide]
900 | NC(N)=Nc1ccc(C(=O)N(Cc2ccc(O)cc2)C2CCN(S(=O)(=O)/C=C/c3ccc(Cl)cc3)C2)cc1 (stereo not shown) [Compound 2, N-[1-[[(E)-2-(4-chlorophenyl)ethenyl]sulfonyl]-3-pyrrolidinyl]-4-[(diaminomethylene)amino]-N-[(4-hydroxyphenyl)methyl]-benzamide]
700 | COC(=O)c1cc(CN(C(=O)c2ccc(N=C(N)N)cc2)C2CCN(S(=O)(=O)/C=C/c3ccc(Cl)cc3)C2)ccc1O (stereo not shown) [Compound 25, 5-[[[1-[[(E)-2-(4-chlorophenyl)ethenyl]sulfonyl]-3-pyrrolidinyl][4-[(diaminomethylene)amino]benzoyl]amino]methyl]-2-hydroxy-benzoic acid methyl ester]
